This experiment concerns Burgundy amaranth (Amaranthus hypochondriacus). Briefly: Herbicidal bioassay against Burgundy amaranth (foliar spray, evaluated 6 days after application). The class given is in vivo. The settings on record: 144 h, read-out: (%) Mortality/Control at Concentration (μg/mL). From the text: As noted above, the herbicidal compositions can be chemically synthesized or derived from a biological organism. Here, the culture broth derived from the 100 L fermentation Burkholderia (A396) was extracted to give crude extract. The crude extract was then fractionated using reversed-phase C18 vacuum liquid chromatography (H2O/CH3OH) to give 5 fractions. These fractions were then screened for herbicidal activity using plant assay with Amaranthus hypochondriacus (Burgundy amaranth). The active fractions (F3 & F4) were then subjected to reversed phase HPLC to give pure compounds, which were then tested in the above mentioned bioassay to locate/identify the active compounds. […] To confirm the identity of the compounds, additional spectroscopic data such as LC-MS and NMR were recorded. Based on the detailed analysis of the data, the two compounds were identified as FR 901464 (MW 507) and spliceostatin C (MW 519). Note that different fermentation method would produce different (or no) amount of the below compound(s), some none at all.
Burgundy amaranth (Amaranthus hypochondriacus) plants were grown in a greenhouse to the 3-4 leaf stage in 2.5 cm square pots containing plant growth mix with slow release fertilizer. Treatments were then applied using a research cabinet track sprayer fitted with an 8001 nozzle and at a carrier volume of 20 gal/A. Negative controls were sprayed with water. Pots were blocked and randomized by treatment after spray and placed in a growth room at 25° C. and 50% RH, and watered as necessary. Plants were evaluated 6 days after application for visual damage and fresh weight. Data in Table 1 was subjected to ANOVA and means were separated using the Tukey method with 95% confidence intervals.

`CC(=O)OC(C)/C=C\C(=O)NC1CC(C)C(C/C=C(C)/C=C/C2CC3(CO3)CC(CC(=O)O)O2)OC1C` (stereo not shown) [Spliceostatin C]: the mortality at 0.65 µg/mL worked out at 44% and the mortality at 1.3 µg/mL stood at 80%.
Consider `CC(=O)OC(C)/C=C\C(=O)NC1CC(C)C(C/C=C(C)/C=C/C2OC(C)(O)CC3(CO3)C2O)OC1C` (stereo not shown) [FR901464], for which the mortality at 0.65 µg/mL is 44% and the mortality at 1.3 µg/mL was 84%.

The record behind these values is US12484582B2, “Herbicidal compound” (PRO FARM GROUP, INC., priority 2017, dated 2025).
